Assays:
[1] = Enzymatic bioconversion in mouse serum; format: in vitro ADME; conditions: for Enzymatic stability, remaining percentage, mouse serum: after 5 h incubation
Description: (§1) The rates of bioactivation of the prodrugs 1–8 in mouse and human liver S9 fractions, as well as in mouse primary astrocyte–microglia homogenate, were determined at +37 °C. The incubation mixtures were prepared by mixing liver S9 subcellular fraction or brain cell homogenate (final protein concentration 1.0 mg/mL) with isotonic Tris–HCl buffer (pH 7.4) and 10 mM prodrug stock solution in DMSO (the initial concentration of prodrugs was 100 μM and the DMSO concentration was […]). The mixture was incubated for 5 h, and the samples ([…]) were withdrawn at appropriate intervals. The enzymatic reaction was terminated by the addition of ice-cold acetonitrile ([…]), and the samples were centrifuged for 5 min at 12 000 rpm at room temperature and kept on ice until the supernatants were analyzed by the HPLC method described below. In blank reactions, the S9 fractions were replaced with the same volume of buffer. The pseudo-first-order half-lives (t1/2) for the rates of bioconversion of the prodrugs were calculated from the slope of the linear portion of the plotted logarithm of the remaining prodrug concentration versus time. The rates of bioactivation of prodrugs 1–8 in human plasma and mouse serum were determined at 37 °C as above by adding 10 mM stock solution of the prodrug to plasma/serum in a ratio of 1:10 and analyzed similarly to the samples from S9 fractions.
(§2) The amount of prodrug 1–8 was determined by the HPLC system, which consisted of an Agilent 1100 binary pump (Agilent Technologies Inc., Wilmington, DE), an 1100 micro vacuum degasser, an HP 1050 Autosampler, and an HP 1050 variable wavelength detector, operated at 230–240 nm. The chromatographic separations were achieved on an Agilent Zorbax SB-C18 analytical column (4.4 mm × 150 mm, 5 μm) (Agilent Technologies Inc., Wilmington, DE) by using isocratic elution of water containing 0.1% formic acid (pH ca. 3.0) and acetonitrile containing 0.1% formic acid with ratios of 50:50, 30:70, 40:60, 50:50, 50:50, 40:60, 40:60, and 30:70 (v/v), respectively, for prodrug 1–8. […] The lower limit of quantification for prodrugs 1–8 was 0.20 μM. These HPLC methods were also accurate, precise, and selective over the range of 0.5–20 μM.

[2] = Enzymatic bioconversion in mouse liver S9 fraction; format: in vitro ADME; conditions: for Enzymatic stability, remaining percentage, mouse liver S9: after 5 h incubation, 100 μM prodrug; for Enzymatic stability, remaining percentage, mouse liver S9 / half-life at 100 µM: 37 °C, mean ± SD, n = 3; for Bioconversion rate in mouse liver S9 relative to the corresponding T4 derivative: DIT prodrug faster than T4 prodrug; for half-life at 100 µM: mouse, pH 7.4, liver S9 fraction, read-out: Enzymatic bioconversion half-life t1/2, mouse liver
Description: as §1, §2

[3] = Enzymatic bioconversion in mouse primary astrocyte–microglia homogenate; format: in vitro ADME; conditions: after 5 h incubation, 100 μM prodrug, 37 °C, mean ± SD, n = 3
Description: as §1, §2

[4] = Enzymatic bioconversion in human liver S9 fraction; format: in vitro ADME; conditions: for Enzymatic stability, remaining percentage, human liver S9: after 5 h incubation, 100 μM prodrug
Description: as §1, §2

[5] = Enzymatic bioconversion in human plasma; format: in vitro ADME; conditions: after 5 h incubation, 37 °C, mean ± SD, n = 3
Description: as §1, §2

OATP1C1 = target: T1, OATP1C1 (Homo sapiens, UniProt Q9NYB5); assay: Competitive uptake into U-87MG cells in the presence of OATP1C1 inhibitors diclofenac and flufenamic acid; format: cell-based; conditions: 100 μM prodrug; for Reduction of cellular uptake by DCF: 100 μM diclofenac; for Cellular uptake in the presence of OATP1C1 inhibitors (DCF and FFA): 100 μM inhibitor, result in words
T1 construct: human U-87MG cells that expressed OATP1C1, but not other OATPs; endogenous in cells; host or cells: U-87MG human glioma cells
T1 sequence (Q9NYB5 1-712): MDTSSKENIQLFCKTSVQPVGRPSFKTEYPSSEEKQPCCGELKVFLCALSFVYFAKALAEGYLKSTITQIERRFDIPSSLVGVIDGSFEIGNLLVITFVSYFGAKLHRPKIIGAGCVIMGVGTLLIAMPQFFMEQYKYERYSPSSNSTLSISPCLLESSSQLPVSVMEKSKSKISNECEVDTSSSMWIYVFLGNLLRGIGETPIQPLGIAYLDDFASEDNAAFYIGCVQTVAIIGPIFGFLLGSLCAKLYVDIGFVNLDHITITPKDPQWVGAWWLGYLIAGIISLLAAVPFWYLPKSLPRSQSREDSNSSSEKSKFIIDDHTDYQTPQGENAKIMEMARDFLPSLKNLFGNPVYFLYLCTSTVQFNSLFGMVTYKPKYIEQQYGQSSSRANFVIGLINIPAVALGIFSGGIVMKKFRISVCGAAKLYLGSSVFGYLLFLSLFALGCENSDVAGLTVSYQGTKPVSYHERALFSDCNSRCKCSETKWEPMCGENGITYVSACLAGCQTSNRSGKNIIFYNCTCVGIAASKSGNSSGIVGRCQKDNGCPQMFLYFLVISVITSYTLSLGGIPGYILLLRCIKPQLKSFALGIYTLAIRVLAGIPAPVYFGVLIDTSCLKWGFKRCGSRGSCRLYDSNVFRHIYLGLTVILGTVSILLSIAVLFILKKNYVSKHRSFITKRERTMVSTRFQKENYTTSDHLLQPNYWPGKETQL
Description: The competitive uptake in the presence of OATP-inhibitors or competing substrates (100 μM), diclofenac (DFC) and flufenamic acid (FFA), for OATP1C1 and naringin (NRG) for OATP1A2 was carried out as described above with HBSS buffer at pH 7.4 containing 100 μM of the studied compound. The cells were preincubated with the inhibitors for 10 min, and the incubation mixture was removed before adding the studied compound and the inhibitor to the cells. The competitive uptake (30 min) with the inhibitor was then carried out as the normal uptake described above. The concentrations of the studied compounds were analyzed by the HPLC methods described below, calculated from the spiked standard curve, and normalized with the protein concentrations.
as §2

| Compound | Enzymatic stability, remaining percentage, mouse serum ([1]; 37 °C, mean ± SD, n = 3) [%] | Enzymatic stability, remaining percentage, mouse liver S9 [2] [%] | Enzymatic stability, remaining percentage, mouse brain cell homogenate [3] [%] | Enzymatic stability, remaining percentage, human liver S9 ([4]; 37 °C, mean ± SD, n = 3) [%] | Enzymatic stability, remaining percentage, human plasma [5] [%] | Reduction of cellular uptake by DCF (OATP1C1) | Cellular uptake in the presence of OATP1C1 inhibitors (DCF and FFA) (OATP1C1) | inhibition at 30 min, 100 μM (OATP1C1; human, pH 7.4, with flufenamic acid (FFA) 100 μM, 100 μM flufenamic acid, read-out: Inhibition of cellular uptake by FFA) [%] | Bioconversion rate in mouse liver S9 relative to the corresponding T4 derivative [2] | half-life at 100 µM [2] [h] | Bioconversion rate in human liver relative to the corresponding T4 derivative ([4]; DIT prodrug faster than T4 prodrug) [times] | half-life at 100 µM ([4]; human, pH 7.4, liver S9 fraction, 37 °C, mean ± SD, n = 3, read-out: Enzymatic bioconversion half-life t1/2, human liver) [h] | Bioconversion rate in mouse serum relative to human plasma ([1]; higher in mouse serum) [times] | half-life at 1 mM ([1]; mouse, serum, 37 °C, mean ± SD, n = 3, read-out: Enzymatic bioconversion half-life t1/2, mouse serum) [h] | Bioconversion rate in human liver, slower than that of prodrug 6 [4] |
| --- | --- | --- | --- | --- | --- | --- | --- | --- | --- | --- | --- | --- | --- | --- | --- |
| CC(C(=O)Oc1c(I)cc(Oc2c(I)cc(C[C@H](N)C(=O)O)cc2I)cc1I)c1cccc(C(=O)c2ccccc2)c1 (mixture of isomers) [Prodrug 2, (2S)-2-Amino-3-(4-(4-((2-(3-benzoylphenyl)propanoyl)oxy)-3,5-diiodophenoxy)-3,5-diiodophenyl)propanoic acid] | 98.79 ± 1.21 | 87.59 ± 1.20 | 96.01 ± 3.99 | 85.71 ± 4.27 | 96.47 ± 3.53 | ca. 56% | reduced more effectively compared to prodrug 1 | ~42 | – | – | – | – | – | – | – |
| CC(C(=O)Oc1c(I)cc(C[C@H](N)C(=O)O)cc1I)c1ccc(-c2ccccc2)c(F)c1 (mixture of isomers) [Prodrug 7, (2S)-2-Amino-3-(4-((2-(2-fluoro-[1,1′-biphenyl]-4-yl)propanoyl)oxy)-3,5-diiodophenyl)propanoic acid] | 94.89 ± 5.11 | 25.19 ± 6.22 | 92.68 ± 7.32 | 30.54 ± 3.21 | 90.52 ± 9.48 | – | significantly reduced | – | around 3 times | 2.69 ± 0.429 | ~2.5 | 2.91 ± 0.25 | – | – | – |
| CC(C(=O)Oc1c(I)cc(Oc2c(I)cc(C[C@H](N)C(=O)O)cc2I)cc1I)c1ccc(-c2ccccc2)c(F)c1 (mixture of isomers) [Prodrug 8, (2S)-2-Amino-3-(4-(4-((2-(2-fluoro-[1,1′-biphenyl]-4-yl)propanoyl)oxy)-3,5-diiodophenoxy)-3,5-diiodophenyl)propanoic acid] | 96.79 ± 3.21 | 84.32 ± 0.99 | 97.94 ± 2.06 | 80.17 ± 2.23 | 97.17 ± 2.83 | – | significantly reduced | – | – | – | – | – | – | – | – |
| N[C@@H](Cc1cc(I)c(OC(=O)c2ccccc2O)c(I)c1)C(=O)O [Prodrug 3, (S)-2-Amino-3-(4-((2-hydroxybenzoyl)oxy)-3,5-diiodophenyl)propanoic acid] | 14.40 ± 0.60 | 99.06 ± 0.94 | 95.26 ± 4.74 | 96.84 ± 3.16 | 68.94 ± 2.01 | – | not affected significantly | – | – | – | – | – | 5 | 1.39 ± 0.49 | – |
| N[C@@H](Cc1cc(I)c(Oc2cc(I)c(OC(=O)c3ccccc3O)c(I)c2)c(I)c1)C(=O)O [Prodrug 4, (S)-2-Amino-3-(4-(4-((2-hydroxybenzoyl)oxy)-3,5-diiodophenoxy)-3,5-diiodophenyl)propanoic acid] | 96.79 ± 3.21 | 69.18 ± 0.81 | 91.38 ± 5.34 | 84.00 ± 3.90 | 97.17 ± 2.83 | – | slightly increased | – | – | – | – | – | – | – | – |
| COc1ccc2cc([C@H](C)C(=O)Oc3c(I)cc(C[C@H](N)C(=O)O)cc3I)ccc2c1 [Prodrug 5, (S)-2-Amino-3-(3,5-diiodo-4-(((S)-2-(6-methoxynaphthalen-2-yl)propanoyl)oxy)phenyl)propanoic acid] | 96.75 ± 3.25 | 38.26 ± 4.49 | 92.98 ± 6.14 | 69.44 ± 2.10 | 70.94 ± 29.06 | 25% | affected by DCF but not by FFA | – | 2 times | 4.15 ± 0.761 | – | – | – | – | around 10% |
| COc1ccc2cc([C@H](C)C(=O)Oc3c(I)cc(Oc4c(I)cc(C[C@H](N)C(=O)O)cc4I)cc3I)ccc2c1 [Prodrug 6, (S)-2-Amino-3-(4-(3,5-diiodo-4-(((S)-2-(6-methoxynaphthalen-2-yl)propanoyl)oxy)phenoxy)-3,5-diiodophenyl)propanoic acid] | 98.33 ± 1.67 | 78.10 ± 1.88 | 95.18 ± 4.82 | 78.70 ± 3.74 | 96.32 ± 3.68 | 75% | affected by DCF but not by FFA | – | – | – | – | – | – | – | – |

Reference: paper PMC10683023, “Targeting Glial Cells by Organic Anion-Transporting Polypeptide 1C1 (OATP1C1)-Utilizing L-Thyroxine-Derived Prodrugs” (Journal of Medicinal Chemistry, 2023)
